# Experimental data: patent US20210106566A1, “PHARMACEUTICAL COMPOSITION FOR TREATING AND/OR PREVENTING PERIPHERAL NEUROPATHY OR SPINAL CORD INJURY” (NATIONAL UNIVERSITY CORPORATION NAGOYA UNIVERSITY, priority 2015, published 2021)
# How the values were obtained:
# [1] = tested on: primary motor neurons; experiment: Neurite outgrowth in primary spinal cord motor neurons; format: cell-based, mouse
# Method: Primary cultured mouse embryonic spinal cord motor neurons were isolated from spinal cord embryo of C57BL/6J mouse on 13.5th day of embryonic stage (E13.5). Solutions of zonisamide in DMSO were prepared at concentrations from 200 μmol/L to […] and then added to the culture medium to obtain the final concentration of zonisamide from 1 μmol/L to 20 μmol/L. The culture medium contained 0.5% DMSO whether or not it contained zonisamide. The cells were seeded at 4.0×10^3 cells/cm^2 in a 96-well plate (Asahi Techno Glass) coated with poly-L-lysine and laminin and maintained in Sumilon neuron culture medium (Sumitomo Bakelite). After incubation for 2 days, the cells were fixed in PBS with 4% […] at ordinary temperature for 15 minutes. The cells were washed with PBS once, blocked with PBS containing 2% goat serum and 0.1% Triton-X, and immunostained with mouse anti-tau-1 monoclonal antibody (1:500, MAB3420, Millipore) and Alexa Fluor 555-conjugated goat anti-mouse secondary antibody (1:1000, Life Technologies). Neurites were automatically analyzed on ArrayScan VTI HCS Reader. The neurite length and the number of nerve branch points were quantified by evaluating the longer 200 neurites. The ratio of neurite-bearing cells was determined by counting cells having a neurite length of 25 micron or more in each well.
# [2] = tested on: primary motor neurons; experiment: MTS assay of cell survival under oxidative stress (hydrogen peroxide); format: cell-based, mouse; settings: zonisamide 1 hour before 100 μmol/L hydrogen peroxide for 24 hours; dose-dependent
# Method: Cell survival rate was assessed by MTS assay (CellTiter 96 Aqueous One Solution Cell Proliferation Assay, Promega), which measured the activity of mitochondrial reductase. Primary cultured motor neurons were cultured in Sumilon neuron culture medium for 24 hours, and the medium was then exchanged to DMEM/F12 supplemented with 0.5% FBS and cultured for 24 hours. Zonisamide was added at various concentrations for 1 hour and 100 μmol/L hydrogen peroxide was then added for 24 hours. The cells were incubated with MTS reagent for 2 hours. MTS signal was quantified on a microplate reader (PowerScan HT, DS PharmaBiomedical). The group of cells treated without hydrogen peroxide was used as a control for evaluating MTS signal.
# [3] = tested on: Erk1/2; experiment: Western blot of Erk1/2 phosphorylation in primary motor neurons; format: cell-based, mouse; settings: primary motor neurons, 0, 10, or 20 μmol/L, days 2 and 3
# Method: Zonisamide (0, 10, or 20 μmol/L) was added to primary motor neurons 4 hours after the beginning of culture. The cells were rinsed with a buffer (50 mmol/L HEPES pH 7.0, 150 mmol/L NaCl, 1% glycerol, 1% TritonX-100, 1.5 mmol/L MgCl2, 1 mmol/L EGTA, 100 mmol/L NaF, 10 mmol/L sodium pyrophosphate, […], 1 mmol/L PMSF, and 1 mmol/L sodium orthovanadate (V)) at days 2 and 3. Total protein was dissolved in 1× Laemmli buffer, separated on a 10% SDS polyacrylamide gel, and transferred to a polyvinylidene fluoride membrane (Immobilon-P, Millipore). The membrane was washed with Tris-buffered physiological saline with 0.05% Tween 20 (TBS-T) and blocked with TBS-T containing 3% skim milk at room temperature for 1 hour. The membrane was incubated with any of anti-Erk1/2 (#4696, Cell Signaling), anti-phosphorylated Erk1/2 (#4370, Cell Signaling), or anti-phosphorylated JNK1/2/3 (#4668, Cell Signaling) antibody (diluted at 1:1000) at 4° C. overnight. The membrane was washed with TBS-T for 10 minutes three times and incubated with […] secondary antibody conjugated to horseradish peroxidase (HRP, GE Healthcare, 1:6000) at room temperature for 1 hour. The blot was detected with Amersham ECL Western blotting detection reagent (GE Healthcare) and quantified with ImageJ program (http://imagej.nih.gov/ij/index.html).
# [4] = tested on: mouse sciatic nerve autologous transplantation model; experiment: Mouse sciatic nerve autologous transplantation model: walking track analysis (SFI); format: in vivo; settings: 30 mg/kg/day, 6 to 8 weeks after surgery
# Source text: Adult male C57BL/6J mice (8 weeks old; 19.5-22.0 g) were purchased from Charles River. The mice were anesthetized with isoflurane and underwent gluteal muscle incision under a sterile condition to expose the sciatic nerve in the left leg. The sciatic nerve was cut at the following two sites (1) and (2): (1) the site 3 mm distal to the first bifurcation of biceps femoris (hereinafter referred to as proximal transection site) (2) the site 3 mm distal to the proximal transection site (hereinafter referred to as distal transection site) The excised nerve segment with a length of 3 mm was confirmed to be completely cut at the two sites. […] Myelin sheath formation in the sciatic nerve was analyzed in six mice in each group. […] The number and area of myelinated axons in the sciatic nerve were manually measured using ImageJ software in a blinded fashion. Motor function was assessed every week in three mice in each group using the walking track analysis. In the walking track analysis, footprints of both hindlimbs were recorded when mice were allowed to walk freely on a runway. Sciatic function index (SFI; Bain et al. Plast Reconstr Surg 83: 129-138 (1989)) was calculated by measuring the width and length of footprints of both legs in a blinded fashion. […] Footprints were recorded on six to eight thin boards.
# [5] = dose dependency, 1 μmol/L to 20 μmol/L, FIG. 1
smiles,measurement,setting,value
"NS(=O)(=O)Cc1noc2ccccc12 [Zonisamide, 3-sulfamoylmethyl-1,2-benzisoxazole]",neurite extension of primary motor neurons (screening of the 16 drugs),"[1]; culture for 48 hours, tau staining",able to extend neurites
same,axonal growth (average neurite length) in primary motor neurons,[1]; [5],dose-dependent axonal growth
same,number of branch points in axons of primary motor neurons,[1]; [5],dose-dependent increase
same,ratio of neurite-bearing cells in primary motor neurons,"[1]; neurite length of 25 micron or more, FIG. 1",not increased
same,number of living cells (MTS signal),[2],significantly increased
same,Erk1/2 phosphorylation,[3],suppress
same,"SFI (sciatic function index), motor function of hindlimbs",[4],dramatically improved
